Laboratory results: paper PMC7887271, “Fast acting allosteric phosphofructokinase inhibitors block trypanosome glycolysis and cure acute African trypanosomiasis in mice” (Nature Communications, 2021)
“And” between values parts separate entries of the source, which are not always exact repeats. Equal values may be shown once. Read-outs that look alike come from different tables or passages of the source.

Experiments:
[1] = target: T1, T. brucei phosphofructokinase (TbPFK) (Trypanosoma brucei brucei, UniProt O15648); assay: ADP-Glo assay for measuring PFK inhibition; assay type: biochemical
T1 construct: made in house; host or cells: Escherichia coli C41 (pET28a, codon optimised gene)
T1 sequence (O15648 1-487): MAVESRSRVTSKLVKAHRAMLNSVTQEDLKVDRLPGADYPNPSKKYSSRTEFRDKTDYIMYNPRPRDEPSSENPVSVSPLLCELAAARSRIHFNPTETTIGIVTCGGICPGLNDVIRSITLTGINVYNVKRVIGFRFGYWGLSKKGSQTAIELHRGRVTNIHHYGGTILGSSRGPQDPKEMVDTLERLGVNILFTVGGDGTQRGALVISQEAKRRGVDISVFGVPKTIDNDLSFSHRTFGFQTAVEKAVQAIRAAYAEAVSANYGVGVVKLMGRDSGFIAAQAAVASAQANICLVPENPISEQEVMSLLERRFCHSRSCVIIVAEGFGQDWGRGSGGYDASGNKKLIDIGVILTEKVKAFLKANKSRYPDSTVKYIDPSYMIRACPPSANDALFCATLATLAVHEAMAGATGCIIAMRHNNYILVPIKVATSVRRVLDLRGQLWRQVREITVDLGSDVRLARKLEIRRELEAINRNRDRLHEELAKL
Method: Parasite enzyme kinetic data were measured using N-terminally His6-tagged TbPFK expressed in Escherichia coli C41 cells, using a codon optimised gene inserted in a pET28a vector (Supplementary Methods 1). Recombinant human PFKs were expressed in PFK-deficient Saccharomyces cerevisiae. PFK enzyme inhibition was measured using an ADP-Glo^TM assay (Promega) in a 96-well plate format (Supplementary Methods 2.1), using a Spectramax© M5 Multimode Plate Reader to measure luminescence values which were converted to ADP concentrations. IC50 values were determined using a sigmoidal curve fitting algorithm in Kaleidagraph 4 (Supplementary Fig. 1). Mode of action studies were carried out using a linked enzyme assay coupling the forward reaction of TbPFK to the M1 isoform of human pyruvate kinase followed by lactate dehydrogenase. The change in UV absorbance at 340 nm resulting from the conversion of NADH to NAD^+ was measured at 25 °C in ‘kinetic mode’ on a Spectramax© M5 Multimode plate reader. Initial velocities were plotted against substrate concentration to give curves showing non-competitive inhibition (Supplementary Fig. 2). An alternative linked enzyme assay was developed to control for the potential inhibitory activity of ATP on human PFK (Supplementary Methods 2.3).
The ADP-Glo™ end-point assay kit manufactured by Promega (cat. No. V9102) was used to measure ADP produced in the phosphofructokinase reaction:
Following this kinase reaction, the addition of a reagent results in any unused background ATP being removed and the reaction is sequestered. A second reagent is then added to convert the remaining ADP to ATP which is coupled to the luciferase/luciferin reaction to produce light. ‘Ultrapure’ ATP and ADP from Promega were used to reduce background noise. All reagents additional to those provided in the Promega ADP-Glo™ kit were purchased from Sigma-Aldrich.
The assay buffer comprised 50 mM triethanolamine (TEA), 10 mM MgCl2, 5 mM KCl, 0.1% w/v bovine serum albumin (BSA), 0.005% Tween-20, 1% DMSO, pH 7.4. A 3-fold serial dilution of 250x inhibitor stocks was carried out in 100% DMSO. 2 µl of these dilutions was added to 198 µl assay buffer and mixed well using a multichannel pipette. […] Concentration ranges of inhibitor compounds were 40 - 0.006 µM (final concentration, 1% DMSO). The PFK reaction in the presence of inhibitor was carried out using 10 µl of 1 µg/ml PFK (final concentration 0.4 µg/ml) which was added to 10 µl of the 1% DMSO inhibitor compound serial dilutions in a white, non-binding 96-well plate (Greiner BioOne 655904). CTCB-001 was used as a positive control at a final concentration of 5 µM. Assay buffer containing 1% DMSO was added instead of inhibitor compound for the negative control. The protein/inhibitor mixture was incubated for 10 minutes at room temperature (RT). The kinase reaction was started by adding a 5x ATP/F6P stock in assay buffer (final concentrations 0.5 mM F6P and 0.1 mM ATP). Plates were then sealed, centrifuged at 560 x g for 30 seconds and incubated at RT for 30 minutes. 25 µl of ‘ADP-Glo™ Reagent’ was then added to each well, mixed using a multichannel pipette and incubated at room temperature for 40 minutes. 50 µl of ‘Kinase Detection Reagent’ was added and incubated for 50 minutes at RT. The luminescence was recorded using a Spectramax© M5 Multi-mode Plate Reader (Molecular Devices) in single-point mode, with an integration time of 750 milliseconds. The luminescence values were converted to ADP concentration using a standard calibration curve for ADP. The resulting ADP concentrations were plotted as a function of inhibitor compound concentration using Kaleidagraph 4.0 software. The data were analysed using non-linear regression and a sigmoidal curve was fitted (Supplementary Figure 1) to determine the IC50. Kaleidagraph 4.0 uses the Levenberg-Marquardt algorithm in an iterative procedure to fit non-linear curves. […] The slope of the curve at the midpoint (m4) was set to 1.

[2] = tested on: bloodstream form of T. brucei strain Lister 427; assay: T. b. brucei 427 growth inhibition assay (LILiT, Alamar Blue); assay type: cell-based; settings: Trypanosoma brucei
Method: The ‘in vitro’ parasite killing assay used the BSF of the non-human pathogenic subspecies T. b. brucei, strain Lister 427, cultured in HMI-9 medium containing 10% foetal bovine serum. A second cell line, T. b. brucei GVR35-Luc2 which constitutively expresses firefly luciferase was grown in Modified HMI-9 plus 20% foetal calf serum supplemented with 20% Serum Plus (Sigma) and 0.15 μg mL^−1 puromycin. Both strains of trypanosomes were cultured in T-25 vented cap flasks at 37 °C and 5% CO2.
The ‘in vitro’ parasite killing assay used the bloodstream-form of the non-human pathogenic subspecies T. b. brucei, strain Lister 427 (a gift from Professor Keith Matthews) which was cultured in HMI-9 medium containing 10% fetal bovine serum (FBS). A second cell line, T. b. brucei GVR35-Luc2 which constitutively expresses firefly luciferase (5) was grown in Modified HMI-9 plus 20% fetal calf serum (FCS) supplemented with 20% Serum Plus (Sigma) and 0.15 μg/ml puromycin as described previously (5). Both strains of trypanosomes were cultured in T-25 vented cap flasks at 37 °C and 5% CO2.
Growth inhibition tests of bloodstream-form T. b. brucei Lister 427 were carried out using the LILiT (long incubation low inoculation test) method (6). The parasites were cultured in complete HMI-9 medium containing 10% FBS in 96-well plates (Greiner Inc.) with approximately 2500 trypanosomes per well. A 3-fold dilution series (in the range from 45 µM – 0.020 µM) of the inhibitor compounds were prepared in the plate; the maximal concentration of DMSO was 0.45%. After 72 hours of incubation at 37 °C and 5% CO2, 50 µl Alamar Blue (0.2% diluted with Dulbecco’s-phosphate buffered saline (D-PBS, Sigma) was added to each well and plates were incubated at 37 °C and 5% CO2 for 4 hours. Fluorescence was read on the BMG multiplate reader using an excitation wavelength of 530 nm and an emission wavelength of 590 nm.

TbPFK = target: T2, TbPFK (Trypanosoma brucei brucei, UniProt O15648); settings: amidosulfonamide series; cited from earlier work
T2 construct: made in house; host or cells: Escherichia coli C41 (pET28a, codon optimised gene)
T2 sequence (O15648 1-487): T1 sequence (O15648 1-487)

T. b. brucei GVR35-VSL2 = assay: Mouse model of stage 1 and stage 2 HAT, bioluminescence imaging; assay type: in vivo, T. b. brucei in female CD-1 mice
Text: An alternative mouse model for stage 1 (acute) and stage 2 (CNS-involved) HAT has been developed using a transgenic cell line derived from the pleiomorphic T. b. brucei GVR35 that expresses red-shifted firefly luciferase[17],[18]. […] T. b. brucei GVR35-infected mice present stage 1 disease by day 7 post infection with progression to stage 2 by day 21. By injecting the mouse with luciferin, the level of parasitaemia can be estimated in real time by monitoring the luminescence. Unlike monomorphic Lister 427 T. b. brucei, the pleiomorphic GVR35 T. b. brucei is controlled by a quorum-sensing mechanism resulting in the significant increase in survival time in mice and lower blood parasitaemia that occurs in waves. This extended survival time is also accompanied by parasite dissemination to multiple tissues and organs, including the skin, adipose tissue, lung and brain, with parasite loads increasing over time[17],[19].
For the mouse model of stage 1 and stage 2 HAT T. b. brucei GVR35-VSL2 parasites (3 × 10^4) were injected into a single donor female CD-1 mouse intraperitoneally. Once infection was established, starting on day 7 for stage 1 studies and day 21 for stage 2 studies, mice were either left untreated (n = 3) or dosed by oral gavage with CTCB compound in Cremophor EL: EtOH: D-PBS (30:10:60 v/v; n = 6). Progression of T. b. brucei GVR35-VSL2 infection was monitored primarily by in vivo bioluminescence imaging of infected mice using an IVIS Spectrum (PerkinElmer). For stage 1 studies, imaging of infected mice was performed before treatment on day 7 post infection and on days following the treatment (days 8, 9 and 14). Imaging on groups of three mice was performed 12 min after intraperitoneal injection of 150 mg kg^−1 D-luciferin (Promega) in PBS. For stage 2 studies, mice were imaged prior to treatment on day 21, and subsequently on days 22 and 23. On day 23, 24 h after the final dose, mice were sacrificed by cervical dislocation and perfused with PBS containing 15 g L^−1 glucose to allow ex vivo imaging of whole brains (Supplementary Figs. 12 and 13).
Female CD-1 (Charles River UK; 6-8 weeks old) mice were infected with 3 × 10^4 T. b. brucei GVR35-VSL2 bloodstream form parasites intraperitoneally. T. b. brucei GVR35-VSL2 expresses red-shifted luciferase and provides a better signal for imaging (13). Once infection was established, starting on day 7 for Stage 1 studies and day 21 for Stage 2 studies, mice were either left untreated (n=3) or dosed by oral gavage with CTCB compound in Cremophor EL: EtOH : D-PBS (30:10:60 v/v) (n = 6). Additional groups of mice (n=3) that received either a single intraperitoneal dose of diminazene aceturate (Sigma-Aldrich) at 40 mg/kg in sterile water or 0.1 ml melarsoprol gel (14) containing 3.6 mg melarsoprol, applied topically for 3 consecutive days, served as controls for Stage 1 and Stage 2 treatment studies, respectively.
Progression of T. b. brucei GVR35-VSL2 infection was monitored primarily by in vivo bioluminescence imaging of infected mice using an IVIS Spectrum (PerkinElmer) as described previously (5). For stage 1 studies, imaging of infected mice was performed before treatment on day 7 post-infection and in days following the treatment (days 8, 9 and 14). Imaging on groups of three mice was performed 12 minutes after intraperitoneal injection of 150 mg/kg D-luciferin (Promega) in PBS. For stage 2 studies, mice were imaged prior to treatment on day 21 and subsequently on days 22 and 23. On day 23, 24 hours after the final dose, mice were sacrificed by cervical dislocation and perfused with phosphate-buffered saline containing 15 g.L^−1 glucose to allow ex vivo imaging of whole brains. To this end, 100 μl D-luciferin was administered onto the brain surface and imaging performed immediately thereafter.

[3] = Average IC50 (µM), source data for Fig. 2 and Table 1
[4] = IC50 (µM), single dated measurement, source data
[5] = 72 h, read-out: EC50 (µM) in vitro parasite killing of bloodstream form T. brucei Lister 427 (Tbb EC50), 72 h, Alamar Blue
[6] = source data for Fig. 2 and Table 1, read-out: Average IC50
[7] = source data, read-out: IC50 (µM), single dated measurement

Compound | EC50 [2, 5] [µM] | IC50 [1, 6] [µM] | IC50 [1, 7] | also measured
O=C(Cc1ccc(Cl)c(Cl)c1)Nc1ccc(S(=O)(=O)Nc2ccon2)cc1 [CTCB-001] | 20.2 ± 2.1 | – | – | IC50 [1, 3]: 0.25 µM; IC50 [1, 4]: 194 nM (2×) and 221 nM and 189 nM and 230 nM and 436 nM and 223 nM and 261 nM (2×); IC50 (TbPFK): ~200 nM
Clc1ccc(Cn2ccnc2)cc1Cl [CTCB-12] | 8.9 ± 0.2 | – | – | L.E. ligand efficiency [1]: 0.51; IC50 [1, 3]: 0.83 µM; IC50 ([1]; IC50 (µM) for inhibition of T. brucei phosphofructokinase (PFK IC50), ADP-Glo, mean ± SD): 0.83 µM; IC50 [1, 4]: 0.83 µM
O=c1[nH]ccc2c1ccn2Cc1ccc(Cl)c(Cl)c1 [CTCB-360] | 1.1 ± 0.1 | 0.07 | 0.041 µM and 0.049 µM and 0.091 µM and 0.059 µM and 0.112 µM | –
O=c1c2ccn(Cc3ccc(Cl)c(Cl)c3)c2ccn1CCO [CTCB-401] | 0.91 ± 0.04 | – | – | IC50 ([1]; read-out: IC50 TbPFK): 0.073 µM; EC50 ([2]; read-out: EC50 against the parasite): 0.9 µM
NCCn1ccc2c(ccn2Cc2ccc(Cl)c(Cl)c2)c1=O [CTCB-421] | 0.54 ± 0.09 | 0.0335 | – | IC50 ([1]; read-out: IC50 TbPFK): 0.03 µM
CC(CN)n1ccc2c(ccn2Cc2ccc(Cl)c(Cl)c2)c1=O (stereo not shown) [CTCB-457] | 0.27 ± 0.01 | 0.11 | 0.092 µM and 0.122 µM | –
CNC[C@@H](C)n1ccc2c(ccn2Cc2ccc(Cl)c(Cl)c2)c1=O [CTCB-481] | 0.15 ± 0.05 | 0.12 | 0.122 µM | –
Nc1nc(N)nc(Nc2ccc([As]3SCC(CO)S3)cc2)n1 (stereo not shown) [Melarsoprol, melarsoprol, reference compound] | – | – | – | Whole body bioluminescence - Total Flux (T. b. brucei GVR35-VSL2; D21 pre-treatment, single mice): 9.807E+10 p/s and 6.826E+10 p/s and 5.548E+10 p/s; Side head bioluminescence - Total Flux (T. b. brucei GVR35-VSL2; D23, individual mice, Supp_Fig13): 2.996E+07 p/s and 8.365E+06 p/s and 9.321E+06 p/s; Ex vivo brain bioluminescence - Total Flux (T. b. brucei GVR35-VSL2; D23, single mice): 2.000E+06 p/s and 2.248E+06 p/s and 1.646E+06 p/s; Whole body bioluminescence - Total Flux (T. b. brucei GVR35-VSL2; D23 post-treatment, single mice): 1.530E+07 p/s and 2.111E+07 p/s and 2.252E+07 p/s
